Source: patent US20240148664A1, “LIPID AND COMPOSITION” (SOGO PHARMACEUTICAL CO., LTD., priority 2021, published 2024)

Experiments:
[1] = system: HT1080-EGFP (human/fibrosarcoma) cells; assay: Evaluation of knockdown effect (GFP assay), Cell experiment 1; type: cell-based; conditions: lipid nanoparticle containing siRNA against EGFP; fluorescence intensity with control cells without lipid nanoparticle set at 100
Experimental: A cell experiment was carried out by using HT1080-EGFP (human/fibrosarcoma) cells in order to evaluate lipid nanoparticles encapsulating an siRNA produced by using the lipids of the Examples and the Comparative Examples. These cells are cells provided with a green fluorescent protein gene (EGFP). The expression of EGFP can be easily confirmed by measuring the fluorescence intensity of a solution in which the cells are lysed, and thus by acting lipid nanoparticles encapsulating an siRNA that suppresses the expression of EGFP and observing any decrease in fluorescence intensity, the performance of the lipid nanoparticles used can be evaluated. Hereinafter, the procedure of the cell experiment will be shown.
A. Provision of Cells • (i) A liquid medium (DMEM/Ham's F12, FBS+, P/S+) (FBS: fetal bovine serum, P/S: antibiotic) was taken out from a refrigerator and temperature-controlled in an incubator set at 37° C. • (ii) A cryotube containing the cells was taken out from a −80° C. freezer and thawed at once in an incubator set at 37° C. • (iii) A stock solution of the thawed cells was collected in a capped test tube. • (iv) The tube containing the cells was washed with the liquid medium, and the wash was also collected in the test tube. • (v) The tube was subjected to a centrifuge to precipitate the cells. • (vi) The supernatant was aspirated, and the liquid medium was added and gently tapped to disperse the cells. • (vii) A small amount of the cells-dispersed liquid medium was collected, and the number of cells was observed and counted under a microscope. • (viii) The cells were seeded in a 24-well plate such that the number of cells was 2×10^4 cells per well. For the plate for an LDH assay described later, the cells were seeded in a 96-well plate such that the number of cells was 4×10^3 cells per well. • (ix) The 24-well plate or the 96-well plate was placed in an incubator, and the cells were cultured for 24 hours under conditions of 37° C. and 5% CO2.
The produced lipid nanoparticles were introduced into cells. • (i) Fetal bovine serum (FBS) was added to a liquid medium (FBS-, P/S-) temperature-controlled as in (i) of A above, in such a way as to reach 10%. • (ii) A 24-well plate was taken out from an incubator, and the liquid medium supernatant in the 24-well plate was aspirated and washed with phosphate buffered saline (PBS). • (iii) 400 μL of the liquid medium produced in (i) above was added to the washed 24-well plate. In addition, 100 μL of an LNP solution having an adjusted concentration was added. • (iv) The 24-well plate was placed in the incubator, and the cells were cultured (for 24 hours). • (v) After 24 hours, the liquid medium supernatant in the 24-well plate was aspirated, and 500 μL of a liquid medium containing 10% FBS (FBS+/P/S+) was added. • (vi) The 24-well plate was placed in the incubator, and the cells were cultured for 24 hours under conditions of 37° C. and 5% CO2.
By carrying out a GFP assay, the EGFP expression level in cells was measured to evaluate the effect of knocking down the green fluorescent protein gene (EGFP) by lipid nanoparticles. • (i) A 24-well plate was taken out from an incubator and washed with PBS. • (ii) A 1% octylglucoside solution to which a protease inhibitor was added was added in order to disrupt cells. Stirring with a pipette lysed the cells. • (iii) The cell lysate was transferred to an Eppendorf tube and subjected to a centrifuge. • (iv) 150 μL of the supernatant was collected and added to a plate for fluorescence measurement. • (v) The fluorescence intensity was measured under conditions of an excitation wavelength of 485 nm and a fluorescence wavelength of 535 nm with a plate reader (manufactured by TECAN, Infinite M200). The fluorescence intensity was calculated with the fluorescence intensity of control cells to which no lipid nanoparticle was added set at 100.

[2] = siRNA / mRNA encapsulation rate of lipid nanoparticle (RiboGreen); type: physicochemical
Method in brief: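 LNP solution was read with RiboGreen (ex 480/em 520 nm) with and without 1% Triton X-100 disruption (2 pmol siRNA or mRNA per 40 μL). Encapsulation (%) = (a−b)/a×100, a = total and b = free RNA signal, each a blank-subtracted mean of three readings.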

[3] = siRNA encapsulation rate of lipid nanoparticle

Row | Compound | Encapsulation rate (%) [2, 3] [%] | Encapsulation rate (%) ([2]; mRNA lipid nanoparticle for in vivo experiment, PEG-modified lipid (PEG2000-DMG 1.5 mol %) present) | Encapsulation rate (%) ([2]; mRNA lipid nanoparticle for in vivo experiment, PEG-modified lipid absent) | GFP Assay [1]
1 | CCCCCCCC/C=C\CCCCCCCCC(CCCCCCC/C=C\CCCCCCCC)OC(=O)C(CC(=O)O)NC(=N)N (stereo not shown) [Comparative Example 2, 3-guanidino-4-(((9Z,27Z)-hexatriaconta-9,27-dien-18-yl)oxy)-4-oxobutanoic acid, reference compound] | 95 | – | – | 97
2 | CCCCCCCC/C=C\CCCCCCCCC(CCCCCCC/C=C\CCCCCCCC)OC(=O)C(CC(=O)O)NC(=O)C(N)CCCNC(=N)N (stereo not shown) [Example 1, 3-(2-amino-5-guanidinopentanamido)-4-(((9Z,27Z)-hexatriaconta-9,27-dien-18-yl)oxy)-4-oxobutanoic acid] | 99 | – | – | 28
3 | CCCCCCCC/C=C\CCCCCCCCC(CCCCCCC/C=C\CCCCCCCC)OC(=O)C(NC(=O)C(N)CCCNC(=N)N)C(C)O [Example 5, (9Z,27Z)-hexatriaconta-9,27-dien-18-yl (2S)-2-((S)-2-amino-5-guanidinopentanamido)-3-hydroxybutanoate] | 100 | – | – | 22
4 | CCCCCCCC/C=C\CCCCCCCCC(CCCCCCC/C=C\CCCCCCCC)OC(=O)[C@H](CCSC)NC(=O)[C@@H](N)CCCNC(=N)N (stereo partly shown) [Example 6, (9Z,27Z)-hexatriaconta-9,27-dien-18-yl arginylmethioninate] | 100 | – | – | 40

Continued, in another order:

Row | Encapsulation rate (%) [2, 3] [%] | Encapsulation rate (%) ([2]; mRNA lipid nanoparticle for in vivo experiment, PEG-modified lipid (PEG2000-DMG 1.5 mol %) present) | Encapsulation rate (%) ([2]; mRNA lipid nanoparticle for in vivo experiment, PEG-modified lipid absent) | Compound | GFP Assay [1]
5 | 95 | – | – | CCCCCCCC/C=C\CCCCCCCCC(CCCCCCC/C=C\CCCCCCCC)OC(=O)C(CCC(=O)O)NC(=N)N (stereo not shown) [Comparative Example 3, 4-guanidino-5-(((9Z,27Z)-hexatriaconta-9,27-dien-18-yl)oxy)-5-oxopentanoic acid, reference compound] | 102
6 | 99 | 93.2 | 91.3 | CCCCCCCC/C=C\CCCCCCCCC(CCCCCCC/C=C\CCCCCCCC)OC(=O)C(CCC(=O)O)NC(=O)C(N)CCCNC(=N)N (stereo not shown) [Example 2, 4-(2-amino-5-guanidinopentanamido)-5-(((9Z,27Z)-hexatriaconta-9,27-dien-18-yl)oxy)-5-oxopentanoic acid] | 24
7 | 100 | – | – | CCCCCCCC/C=C\CCCCCCCCC(CCCCCCC/C=C\CCCCCCCC)OC(=O)C(CO)NC(=O)C(N)CCCNC(=N)N [Example 4, (9Z,27Z)-hexatriaconta-9,27-dien-18-yl (2S)-2-((S)-2-amino-5-guanidinopentanamido)-3-hydroxypropionate] | 7
